Results: PMC4556614 (PLoS ONE, 2015)

Columns and labels:
[1] = ref 16 (Regenthal et al.), cited from earlier work; for Cmax,u: Cmax of unbound drug in humans; for Cmax: maximum steady-state plasma concentration in humans
OCT2 [2] = biological target: T1, OCT2 (Homo sapiens, UniProt O15244); assay: Inhibition of OCT2-mediated [14C]metformin uptake in HEK-OCT2 cells; settings: for % Inhibition of OCT2-dependent MF uptake at 200 µM (mean ± SEM) / IC50: human, pH 7.3; for IC50 values, OCT2-mediated metformin transport (in words): potent inhibitors, confirmed previous findings [19]-[21]
T1 sequence (O15244 whole entry): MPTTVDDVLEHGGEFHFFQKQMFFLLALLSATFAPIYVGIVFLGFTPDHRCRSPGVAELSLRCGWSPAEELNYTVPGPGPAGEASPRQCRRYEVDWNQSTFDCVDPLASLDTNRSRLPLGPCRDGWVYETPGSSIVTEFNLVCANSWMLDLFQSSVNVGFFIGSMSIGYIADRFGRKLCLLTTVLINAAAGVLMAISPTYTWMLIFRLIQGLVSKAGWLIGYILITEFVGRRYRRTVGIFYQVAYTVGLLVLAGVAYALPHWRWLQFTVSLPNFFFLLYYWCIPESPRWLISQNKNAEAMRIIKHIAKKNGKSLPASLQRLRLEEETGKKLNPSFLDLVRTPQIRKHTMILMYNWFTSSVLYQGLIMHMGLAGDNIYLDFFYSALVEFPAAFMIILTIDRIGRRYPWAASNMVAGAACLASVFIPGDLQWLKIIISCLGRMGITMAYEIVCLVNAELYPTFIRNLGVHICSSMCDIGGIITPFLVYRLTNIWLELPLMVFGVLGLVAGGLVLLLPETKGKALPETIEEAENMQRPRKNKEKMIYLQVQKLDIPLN

OCT2 [3] = biological target: T1, OCT2; assay: Inhibition of OCT2-mediated [3H]MPP+ uptake in HEK-OCT2 cells; settings: for % Inhibition of OCT2-dependent MPP+ uptake at 20 µM (mean ± SEM): test drug 20 µM
OCT2 [4] = system: OCT2; parameters: method as in earlier work; settings: drug 20 μM; HEK 293 cells overexpressing OCT2; ref 7 (Kido et al.); cited from earlier work
OCT2 [5] = settings: cited from earlier work
OCT2 [6] = biological target: T1, OCT2; assay: Time-dependent substrate uptake into HEK-OCT2 and vector control cells; assay type: cell-based; parameters: expressed in transfected cells; host or cells: HEK 293 cells, stably transfected (HEK-OCT2); vector control HEK-VC; settings: metformin 1000 μM; for Time until OCT2-mediated uptake reached steady-state: HEK-OCT2 cells
Description: For the transport assays HEK cell lines stably transfected with human OCT2 (HEK-OCT2) or the vector only (HEK-VC) were used. The HEK-OCT2 cell line was established and characterized previously. HEK-OCT2 and HEK-VC cells were seeded in poly-D-lysine (Sigma Aldrich, Taufkirchen, Germany) coated 48-well-plates at a density of 1.2 x 10^5 cells/well. […] In a total incubation volume of 125 μL the final concentrations of the test drugs were 20 or 200 μM. […] Uptake was stopped by washing the cells three times with ice-cold uptake buffer. Afterwards, cells were lysed with 5 mM Tris buffer (pH 7.3) containing 0.1% Triton X-100. The intracellular accumulation of radioactivity was determined by liquid scintillation counting (PerkinElmer, Rodgau-Jügesheim, Germany) and protein concentration of each lysate was measured with bicinchonic acid assay (BCA Protein Assay Kit, Thermo Fisher Scientific, Waltham, MA, USA). We performed two to eight experiments each on at least two separate days, i.e., n = 4–16. […] The percentage of uptake inhibition was calculated as: Inhibition (%) = 100 –(V / V 0 * 100), where V and V 0 are the net uptake rates with and without test drug.
Data are presented as the mean ± standard error (4–8 experiments each on two to four separate days, i.e., n = 8–29).

[7] = MPP+ 50 μM, 3 min, net uptake HEK-OCT2 minus HEK-VC
[8] = test drug 200 µM, MPP+ 50 μM, 3 min, net uptake HEK-OCT2 minus HEK-VC

| SMILES | Cmax,u [1] [nM] | Cmax [1] [nM] | % Inhibition of OCT2-dependent MF uptake at 200 µM (mean ± SEM) (OCT2 [2]) | IC50 (OCT2 [2]) [nM] | % Inhibition of OCT2-dependent MPP+ uptake at 20 µM (mean ± SEM) (OCT2 [3]; [7]) [%] | % Inhibition of OCT2-dependent MPP+ uptake at 200 µM (mean ± SEM) (OCT2 [3]; [8]) [%] | Inhibition of OCT2-mediated ASP+ uptake (OCT2 [4]) | further results |
| --- | --- | --- | --- | --- | --- | --- | --- | --- |
| CN(C)CCC=C1c2ccccc2CCc2ccccc21 [Amitriptyline] | 40 | 1100 | 101.7 ± 2.2% | 510 | 58.4 ± 2.8 | 97.8 ± 0.6 | more than 50% | Cmax,u / IC50 (OCT2 [2]): 0.08; IC50 values, OCT2-mediated metformin transport (in words) (OCT2 [2]): low micromolar range; % Inhibition of OCT2-dependent MPP+ uptake at 20 µM (mean ± SEM) (OCT2 [3]; MPP+ 50 μM, 3 min, net uptake HEK-OCT2 minus HEK-VC, listed as amitriptyline): more than 50% |
| CN/C(=N/CCSCc1nc[nH]c1C)NC#N [Cimetidine] |  |  |  |  |  |  |  | Affinity for MATEs compared with OCT2 (OCT2 [5]): higher affinity for MATEs than for OCT2; Inhibitor of OCT2 (in words) (OCT2 [5]): rather weak inhibitor |
| CN(C)CCC=C1c2ccccc2COc2ccccc21 [Doxepin] | 250 | 1300 | 99.3 ± 0.7 | 250 |  |  | more than 50% |  |
| C[n+]1ccc(-c2ccccc2)cc1 [MPP^+, 1-methyl-4-phenylpyridinium] |  |  |  |  |  |  |  | Uptake ratio OCT2 cells vs. vector control cells (OCT2 [6]; MPP+ 50 μM, 3 min, no inhibitor): 3.2; Time until OCT2-mediated uptake reached steady-state (OCT2 [6]; MPP+ 50 μM): approximately 15 min |
| CN(C)C(=N)N=C(N)N [Metformin] |  |  |  |  |  |  |  | Time until OCT2-mediated uptake reached steady-state (OCT2 [6]; MPP+ 50 μM): approximately 15 min; Uptake of metformin in vector control cells (OCT2 [6]; 3 min, HEK-VC, no inhibitor): 227 ± 22.1 pmol/mg/min; Uptake of metformin in HEK-OCT2 cells (OCT2 [6]; 3 min, no inhibitor): 5946 ± 294.0 pmol/mg/min |
| COc1ccc2[nH]c([S+]([O-])Cc3ncc(C)c(OC)c3C)nc2c1 (stereo not drawn) [Omeprazole] |  |  | 107.4 ± 4.3 |  | 56.0 ± 4.0 | 93.0 ± 0.9 | more than 50% | IC50 values, OCT2-mediated metformin transport (in words) (OCT2 [2]): low micromolar range; % Inhibition of OCT2-dependent MPP+ uptake at 20 µM (mean ± SEM) (OCT2 [3]; MPP+ 50 μM, 3 min, net uptake HEK-OCT2 minus HEK-VC, listed as omeprazole): more than 50% |
| CCCc1nc2c(C)cc(-c3nc4ccccc4n3C)cc2n1Cc1ccc(-c2ccccc2C(=O)O)cc1 [Telmisartan] |  |  | 99.2 ± 0.2 |  |  |  | more than 50% | % Inhibition of OCT2-dependent MPP+ uptake at 200 µM (mean ± SEM) (OCT2 [3]; human, pH 7.3): 93.3 ± 2.8 |
| CC(CN(C)C)CN1c2ccccc2CCc2ccccc21 (stereo not drawn) [Trimipramine] | 60 | 610 | 100.0 ± 0.8 | 440 | 51.0 ± 10.2 | 98.6 ± 1.2 | more than 50% | % Inhibition of OCT2-dependent MPP+ uptake at 20 µM (mean ± SEM) (OCT2 [3]; MPP+ 50 μM, 3 min, net uptake HEK-OCT2 minus HEK-VC, listed as trimipramine): more than 50% |
